One data set relates to patients. To be noted: cited from earlier work.
Data set [1] can be described thus: nasal absorption: KTM plasma levels by HPLC after intranasal or intravenous administration. It counts as in vivo, White New Zealand rabbits. To be noted: rabbit. The protocol: Each rabbit received a active preparation in one nostril and its placebo in the other. Each animal received 2 mg/kg of KETOROLAC® tromethamine (KTM), twice a day for seven days and once on the eighth day. The control rabbits were treated, after seven days of nasal administration of physiologic solution, with 2 mg/kg of KTM by intravenous route once. After the last treatment plasma samples were collected at several times and KTM plasma levels were investigated by HPLC. After the last blood sample was drawn all the animals were killed by excision of femoral arteries, after having been completely anaesthetized. Nasal turbinates, larynx and pharynx were removed and subjected to histological examinations.

Here are results for 2 compounds from patent US7476689B2, “Therapeutic compositions for intranasal administration which include KETOROLAC” (Recordati Ireland Limited, priority 1991, dated 2009).

For the compound `O=C(c1ccccc1)c1ccc2n1CCC2C(=O)O` (stereo not drawn) [KETOROLAC®, 5-benzoyl-2,3-dihydro-1H-pyrrolizine-1-carboxylic acid], the “patients with one or more undesirable side effects” value in the data set with patients (intramuscular route, 20 doses of 30 mg each over five days) was “about 10%”. In addition, the “patients with gastrointestinal disorders” value in the data set with patients (oral administration) is reported as “up to 50%”. Moreover, the “incidence of side effects” value in the data set with patients (oral route for a few days) was “around 32%”.

`O=C(c1ccccc1)c1ccc2n1CCC2C(=O)O` (stereo not drawn) [KTM, KETOROLAC® tromethamine]: the concentration at 0.083 h in data set [1] (New Zealand White, plasma, intravenous 2 mg/kg once, 0.083 hours) came out at 14500 ng/mL. The same compound gave a concentration at 0.25 h in data set [1] (New Zealand White, plasma, intravenous 2 mg/kg once, 0.25 hours) of 7680 ng/mL. The compound further showed a concentration at 0.5 h in data set [1] (New Zealand White, plasma, intravenous 2 mg/kg once, 0.5 hours) of 3880 ng/mL. The compound also displayed a concentration at 1 h in data set [1] (New Zealand White, plasma, intravenous 2 mg/kg once, 1 hour) of 1700 ng/mL. The concentration at 2 h in data set [1] (New Zealand White, plasma, intravenous 2 mg/kg once, 2 hours) turned out to be 403 ng/mL. Moreover, the concentration at 3 h in data set [1] (New Zealand White, plasma, intravenous 2 mg/kg once, 3 hours) was 120 ng/mL. This compound yielded a concentration at 5 h in data set [1] (New Zealand White, plasma, intravenous 2 mg/kg once, 5 hours) of 20 ng/mL. In addition, the AUC(0-t) in data set [1] (New Zealand White, plasma, intravenous 2 mg/kg, mean of three animals, read-out: AUC0-5, average) stood at 7360 ng·h/mL. Moreover, the “Plasma Concentration of KTM, Mean” value in data set [1] (intravenous 2 mg/kg once, sampling time Basal) was 0 ng/mL.
